How the values were obtained:
full-length human SYK = full-length human SYK (Homo sapiens (Human), UniProt P43405); experiment: Inhibition of enzymatic SYK kinase activity (LANCE Ulight TK peptide); assay type: biochemical; settings: ATP at Km (15 uM), 30 min pre-incubation
Protocol: Compounds of the present invention were assayed to measure their capacity to inhibit a spleen tyrosine kinase (SYK).
Compounds of the invention were initially diluted to 10 mM in 100% DMSO (CALBIOCHEM™) for storage and made into kinase buffer solution to create a compound concentration ranging from 1 uM and 10 uM. Serial dilutions of compounds of the invention were dispensed into a 96-well plate (GREINER BIOSCIENCES™) at 6 μL each. Purified full-length human SYK (CARNA BIOSCIENCES™) were diluted in kinase buffer and added to the compound solutions and pre-incubated for 30 minutes at room temperature. […] The reaction mixture was incubated for 1 hour. Following the incubation, the stop solution made with EDTA, water, and Lance detection buffer ([…]™) was added (12 μL each) to stop phosphorylation.

THP-1 cells = experiment: SYK-dependent TNF-α release assay (IgG stimulation), ELISA; assay type: cell-based; settings: THP-1 cells on human IgG-coated plate, 18 hours; read-out: TNF-α release inhibition, IgG stimulation IC50
Protocol: In order to address cellular potency of Compounds of Formula (I), TNF-a production was measured on treatment of a series of concentration of SYK inhibitor in THP-1 cells.
For SYK-dependent TNF-α release assay (i.e., via IgG stimulation), THP-1 cells derived from human monocytic cells were obtained from the American Type Culture Collection (ATCC, Manassas, Va.). This cell line was maintained with a Roswell Park Memorial Institute (RPMI) medium (GIBCO) containing 10% fetal bovine serum (FBS; GIBCO) and 0.05 mM solution of 2-mercaptoethanol. The THP-1 cells were seeded at 1×10^5 cells/100 μL/well into human IgG (10 ng/well, INVITROGEN)-coated 96 well culture plate, and serially diluted compound was then added. After an 18 hours of incubation period at 37° C., supernatants were collected for the determination of the TNF-α level by enzyme-linked immunosorbent assay (ELISA), and the remaining cells were subjected to an MTT (yellow tetrazolium salt) assay to determine the cytotoxic effects of the compound. The IC50 value of the test compound was calculated at Gradpad Prism 5 unless otherwise specified.

IC50 (THP-1 cells) [nM]	Molecule	IC50 (full-length human SYK) [nM]
67	Cc1nn(-c2ccnc(Nc3ccc4c(c3)c(C(=O)C(C)C)cn4C)n2)cc1CN1C[C@H](O)CO1 [Compound 2, (S)-1-(5-(4-(4-((4-hydroxyisoxazolidin-2-yl)methyl)-3-methyl-1H-pyrazol-1-yl)pyrimidin-2-ylamino)-1-methyl-1H-indol-3-yl)-2-methylpropan-1-one]	8.63
48	Cc1nn(-c2ccnc(Nc3ccc4c(c3)c(C(=O)C(F)(F)F)cn4C)n2)cc1CN1C[C@H](O)CO1 [Compound 3, (S)-2,2,2-trifluoro-1-(5-(4-(4-((4-hydroxyisoxazolidin-2-yl)methyl)-3-methyl-1H-pyrazol-1-yl)pyrimidin-2-ylamino)-1-methyl-1H-indol-3-yl)ethanone]	2.82
45	Cc1nn(-c2ccnc(Nc3ccc4c(c3)c(C(=O)C(F)F)cn4C)n2)cc1CN1C[C@H](O)CO1 [Compound 4, (S)-2,2-difluoro-1-(5-(4-(4-((4-hydroxyisoxazolidin-2-yl)methyl)-3-methyl-1H-pyrazol-1-yl)pyrimidin-2-ylamino)-1-methyl-1H-indol-3-yl)ethanone]	9.42
293	CCOC(=O)n1cc(C(C)=O)c2cc(Nc3nccc(-n4cc(CN5C[C@H](O)CO5)c(C)n4)n3)ccc21 [Compound 5, (S)-ethyl 3-acetyl-5-(4-(4-((4-hydroxyisoxazolidin-2-yl)methyl)-3-methyl-1H-pyrazol-1-yl)pyrimidin-2-ylamino)-1H-indole-1-carboxylate]	–
60	Cc1nn(-c2ccnc(Nc3ccc4[nH]cc(C(=O)C(F)(F)F)c4c3)n2)cc1CN1C[C@H](O)CO1 [Compound 7, (S)-2,2,2-trifluoro-1-(5-(4-(4-((4-hydroxyisoxazolidin-2-yl)methyl)-3-methyl-1H-pyrazol-1-yl)pyrimidin-2-ylamino)-1H-indol-3-yl)ethanone]	8.28
229	CC(=O)c1cn(C)c2ccc(Nc3nccc(-n4cc(CN5C[C@H](O)CO5)c(C)n4)n3)cc12 [Compound 9, (S)-1-(5-(4-(4-((4-hydroxyisoxazolidin-2-yl)methyl)-3-methyl-1H-pyrazol-1-yl)pyrimidin-2-ylamino)-1-methyl-1H-indol-3-yl)ethanone]	13.3
–	Cc1nn(-c2ccnc(Nc3ccc4c(c3)c(C(=O)C(F)F)cn4C)n2)cc1CN1C[C@@H](O)CO1 [Compound 10, (R)-2,2-difluoro-1-(5-(4-(4-((4-hydroxyisoxazolidin-2-yl)methyl)-3-methyl-1H-pyrazol-1-yl)pyrimidin-2-ylamino)-1-methyl-1H-indol-3-yl)ethanone]	24.4
120	Cc1nn(-c2ccnc(Nc3ccc4[nH]cc(C(=O)C5CC5)c4c3)n2)cc1CN1C[C@H](O)CO1 [Compound 12, (S)-cyclopropyl(5-(4-(4-((4-hydroxyisoxazolidin-2-yl)methyl)-3-methyl-1H-pyrazol-1-yl)pyrimidin-2-ylamino)-1H-indol-3-yl)methanone]	13.5
789	Cc1nn(-c2ccnc(Nc3ccc4c(c3)c(C(=O)C3CC3)cn4C)n2)cc1CN1CC(C)(O)CO1 (stereo not shown) [Compound 14, cyclopropyl(5-(4-(4-((4-hydroxy-4-methylisoxazolidin-2-yl)methyl)-3-methyl-1H-pyrazol-1-yl)pyrimidin-2-ylamino)-1-methyl-1H-indol-3-yl)methanone]	41.7
–	Cc1nn(-c2nc(Nc3ccc4c(c3)c(C(=O)C(F)(F)F)cn4C)ncc2Cl)cc1CN1C[C@H](O)CO1 [Compound 17, (S)-1-(5-(5-chloro-4-(4-((4-hydroxyisoxazolidin-2-yl)methyl)-3-methyl-1H-pyrazol-1-yl)pyrimidin-2-ylamino)-1-methyl-1H-indol-3-yl)-2,2,2-trifluoroethanone]	132
–	Cc1cnc(Nc2ccc3c(c2)c(C(=O)C(F)(F)F)cn3C)nc1-n1cc(CN2C[C@H](O)CO2)c(C)n1 [Compound 18, (S)-2,2,2-trifluoro-1-(5-(4-(4-((4-hydroxyisoxazolidin-2-yl)methyl)-3-methyl-1H-pyrazol-1-yl)-5-methylpyrimidin-2-ylamino)-1-methyl-1H-indol-3-yl)ethanone]	159
–	CCn1cc(C(=O)C2CC2)c2cc(Nc3ncc(F)c(-n4cc(CN5C[C@H](O)CO5)c(C)n4)n3)ccc21 [Compound 20, (S)-cyclopropyl(1-ethyl-5-(5-fluoro-4-(4-((4-hydroxyisoxazolidin-2-yl)methyl)-3-methyl-1H-pyrazol-1-yl)pyrimidin-2-ylamino)-1H-indol-3-yl)methanone]	66.2
–	CCn1cc(C(=O)C2CC2)c2cc(Nc3ncc(C)c(-n4cc(CN5C[C@H](O)CO5)c(C)n4)n3)ccc21 [Compound 22, (S)-cyclopropyl(1-ethyl-5-(4-(4-((4-hydroxyisoxazolidin-2-yl)methyl)-3-methyl-1H-pyrazol-1-yl)-5-methylpyrimidin-2-ylamino)-1H-indol-3-yl)methanone]	79.3
–	Cc1nn(-c2ccnc(Nc3ccc4c(c3)c(C(=O)C3CC3)cn4C)n2)cc1CN1CC(C)(O)CCO1 (stereo not shown) [Compound 28]	106
–	(S)-cyclopropyl(1-ethyl-5-(5-fluoro-4-(3-((4-hydroxyisoxazolidin-2-yl)methyl)-4-methyl-1H-pyrrol-1-yl)pyrimidin-2-ylamino)-1H-indol-3-yl)methanone [Compound 21]	230

Molecule	IC50 (THP-1 cells) [nM]	IC50 (full-length human SYK) [nM]
Cc1nn(-c2ccnc(Nc3ccc4c(c3)c(C(=O)C3CC3)cn4C(C)C)n2)cc1CN1C[C@H](O)CO1 [Compound 8, (S)-cyclopropyl(5-(4-(4-((4-hydroxyisoxazolidin-2-yl)methyl)-3-methyl-1H-pyrazol-1-yl)pyrimidin-2-ylamino)-1-isopropyl-1H-indol-3-yl)methanone]	97	7.37
CCn1cc(C(=O)C2CC2)c2cc(Nc3nccc(-n4cc(CN5C[C@@H](O)CO5)c(C)n4)n3)ccc21 [Compound 11, (R)-cyclopropyl(1-ethyl-5-(4-(4-((4-hydroxyisoxazolidin-2-yl)methyl)-3-methyl-1H-pyrazol-1-yl)pyrimidin-2-ylamino)-1H-indol-3-yl)methanone]	89	6.28
CCn1cc(C(=O)C2CC2)c2cc(Nc3nccc(-n4cc(CN5CC(C)(O)CO5)c(C)n4)n3)ccc21 (stereo not shown) [Compound 13, cyclopropyl(1-ethyl-5-(4-(4-((4-hydroxy-4-methylisoxazolidin-2-yl)methyl)-3-methyl-1H-pyrazol-1-yl)pyrimidin-2-ylamino)-1H-indol-3-yl)methanone]	273	17.3
Cc1nn(-c2ccnc(Nc3ccc4c(c3)c(C(=O)C3CC3)cn4CC(F)(F)F)n2)cc1CN1C[C@H](O)CO1 [Compound 15, (S)-cyclopropyl(5-(4-(4-((4-hydroxyisoxazolidin-2-yl)methyl)-3-methyl-1H-pyrazol-1-yl)pyrimidin-2-ylamino)-1-(2,2,2-trifluoroethyl)-1H-indol-3-yl)methanone]	66	2.98
Cc1nn(-c2ccnc(Nc3ccc4c(c3)c(Cl)c(C)n4C)n2)cc1CN1C[C@H](O)CO1 [Compound 31, (S)-2-((1-(2-(3-chloro-1,2-dimethyl-1H-indol-5-ylamino)pyrimidin-4-yl)-3-methyl-1H-pyrazol-4-yl)methyl)isoxazolidin-4-ol]	197	–

— US9212178B2, “Substituted pyrimidine compounds and their use as SYK inhibitors” (Genosco, priority 2013, dated 2015)
